Here are results for two compounds from ChEMBL document CHEMBL4342527, “Discovery of Novel Fungal Lanosterol 14α-Demethylase (CYP51)/Histone Deacetylase Dual Inhibitors to Treat Azole-Resistant Candidiasis” (J Med Chem, 2020).

In brackets after ≈: the same amount, converted by molar mass. Activity calls are given as the source filed them. No cut-off for these calls is given here.

The test system of data set [1] is Candida albicans. Description: Antifungal activity against azole-resistant Candida albicans 0304103 infected in ICR mouse assessed as reduction in fungal burden in kidney by measuring colony forming units at 20 mg/kg, ip qd for 5 days measured 24 hrs post-last dose (reference value: 6.89 log10CFU/g). It counts as functional.
A short description of data set [2]: Selectivity index, ratio of IC50 for HUVEC to MIC80 for azole-resistant Candida albicans 7781. In kind it is toxicity. As to conditions: human.
Data set [3] has as its system Candida albicans. Description: Antifungal activity against Candida albicans 0304103 assessed as inhibition of yeast to hypha morphological transition at 8 ug/ml after 4 hrs by differential interference contrast microscopic analysis relative to control. In kind it is functional. As to conditions: Candida albicans, 0304103, 4 h.
Data set [4] can be described thus: Selectivity index, ratio of IC50 for human A549 cells to MIC80 for azole-resistant Candida albicans 4108. In kind it is toxicity.
Data set [5] has as its system Candida albicans. In words: Antifungal activity against azole-resistant Candida albicans 0304103 infected in ICR mouse assessed as inhibition of fungal infection in kidney at 20 mg/kg, ip qd for 5 days and measured on day 6 by periodic acid schiff staining-based histological analysis. It counts as functional, organism-based.
Data set [6] in a line: Selectivity index, ratio of IC50 for HUVEC to MIC80 for azole-resistant Candida tropicalis 5008. It counts as toxicity. To be noted: human.
In a further data set the test system is A549. In words: Cytotoxicity against human A549 cells assessed as reduction in cell viability after 48 hrs by CCK-8 assay based spectrophotometric analysis. As to conditions: A549, 48 h.
In data set [7] the test system is Candida albicans. Description: Antifungal activity against azole-resistant Candida albicans 7781 after 48 hrs by spectrophotometry-based serial microdilution method. It counts as functional. To be noted: Candida albicans, 7781, 48 h. Background: In broth dilution the organism is exposed to a series of concentrations in liquid medium.
In data set [8] the test system is Candida albicans. Description: Antifungal activity against azole-resistant Candida albicans 0304103 infected in ICR mouse assessed as inhibition of filamentation at 20 mg/kg, po qd for 5 days and measured on day 6 by periodic acid schiff staining-based histological analysis. It counts as functional, organism-based.
The subject of another data set is HUVEC. Description: Cytotoxicity against HUVEC assessed as reduction in cell viability after 48 hrs by CCK-8 assay based spectrophotometric analysis. As to conditions: Homo sapiens.
The subject of the next data set is Cryptococcus neoformans. In words: Antifungal activity against azole-sensitive Cryptococcus neoformans H99 after 72 hrs by spectrophotometry-based serial microdilution method. It counts as functional, var grubii H99. To be noted: Cryptococcus neoformans, var grubii H99 , 72 h; read-out: MIC80.
The target of data set [9] is T1, Protein deacetylase HDAC6 (Homo sapiens, UniProt Q9UBN7).
T1 sequence (Q9UBN7 whole entry): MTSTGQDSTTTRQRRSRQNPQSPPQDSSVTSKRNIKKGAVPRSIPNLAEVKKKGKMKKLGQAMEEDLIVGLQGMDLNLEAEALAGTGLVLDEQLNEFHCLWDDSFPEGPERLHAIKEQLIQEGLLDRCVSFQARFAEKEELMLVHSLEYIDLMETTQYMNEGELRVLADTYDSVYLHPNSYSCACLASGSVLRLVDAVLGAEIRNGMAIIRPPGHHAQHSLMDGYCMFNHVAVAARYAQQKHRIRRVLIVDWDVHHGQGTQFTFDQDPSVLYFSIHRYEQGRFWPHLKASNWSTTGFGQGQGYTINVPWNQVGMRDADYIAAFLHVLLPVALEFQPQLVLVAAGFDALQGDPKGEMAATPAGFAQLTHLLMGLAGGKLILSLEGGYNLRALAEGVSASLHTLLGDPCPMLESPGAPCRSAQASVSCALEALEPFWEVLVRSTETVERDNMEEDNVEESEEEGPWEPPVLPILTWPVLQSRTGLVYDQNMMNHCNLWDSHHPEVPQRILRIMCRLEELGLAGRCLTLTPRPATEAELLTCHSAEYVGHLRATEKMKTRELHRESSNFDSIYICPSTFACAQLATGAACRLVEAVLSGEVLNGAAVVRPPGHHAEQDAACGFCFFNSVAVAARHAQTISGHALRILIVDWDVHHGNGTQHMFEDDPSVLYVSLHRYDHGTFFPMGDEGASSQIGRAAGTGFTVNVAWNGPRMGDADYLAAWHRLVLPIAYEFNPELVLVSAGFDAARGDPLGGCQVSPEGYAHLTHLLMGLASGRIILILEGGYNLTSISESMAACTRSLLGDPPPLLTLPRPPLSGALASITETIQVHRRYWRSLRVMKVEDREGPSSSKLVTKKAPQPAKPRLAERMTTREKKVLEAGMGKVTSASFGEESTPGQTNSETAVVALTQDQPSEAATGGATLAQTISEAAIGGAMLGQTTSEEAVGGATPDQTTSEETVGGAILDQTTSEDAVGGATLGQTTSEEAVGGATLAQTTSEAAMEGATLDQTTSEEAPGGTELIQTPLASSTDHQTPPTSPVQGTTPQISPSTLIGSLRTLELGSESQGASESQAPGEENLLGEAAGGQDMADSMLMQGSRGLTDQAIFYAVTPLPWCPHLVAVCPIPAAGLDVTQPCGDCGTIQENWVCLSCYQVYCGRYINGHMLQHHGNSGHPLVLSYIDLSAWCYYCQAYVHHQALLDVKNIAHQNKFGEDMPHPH
In words: Inhibition of HDAC6 (unknown origin) after 30 mins by fluorescence based assay.

Data set [10] addresses T2, Lanosterol 14-alpha demethylase (Candida albicans (strain SC5314 / ATCC MYA-2876) (Yeast), UniProt P10613). In words: Inhibition of CYP51 in azole-resistant Candida albicans 0304103 assessed as lanosterol level at 0.5 ug/ml after 24 hrs by GC-MS analysis (reference value: 4.15%). Also on record: scale not given: the % may be the effect or the level left.
In data set [11] the test system is Candida albicans. In words: Antifungal activity against azole-resistant Candida albicans 0304103 after 48 hrs by spectrophotometry-based serial microdilution method. In kind it is functional. To be noted: Candida albicans, 0304103, 48 h.
The test system of data set [12] is Candida albicans. Description: Antifungal activity against azole-sensitive Candida albicans SC5314 after 48 hrs by spectrophotometry-based serial microdilution method. In kind it is functional. To be noted: Candida albicans, SC5314, 48 h; read-out: MIC80.
Data set [13] concerns Candida albicans. In words: Fungistatic activity agaisnt Candida albicans 0304103 at 16 ug/ml preincubated for up to 24 hrs followed by replating on SDA plate and measured after 48 hrs by time kill assay. In kind it is functional, organism-based.
In data set [14] the test system is Candida albicans. Description: Antifungal activity against Candida albicans 0304103 assessed as inhibition of yeast to hypha morphological transition at 1 ug/ml after 4 hrs by differential interference contrast microscopic analysis relative to control. In kind it is functional. As to conditions: Candida albicans, 0304103, 4 h.
Data set [15] has as its system Candida albicans. Description: Inhibition of HDAC in azole-resistant Candida albicans 0304103 assessed as reduction in MDR1 gene expression at 32 ug/ml after 16 hrs by SYBR Green-1 dye based RT-PCR analysis. To be noted: 304103.
Data set [16] concerns the target T2, Lanosterol 14-alpha demethylase. Description: Inhibition of CYP51 in azole-resistant Candida albicans 0304103 assessed as obtusifoliol level at 0.5 ug/ml after 24 hrs by GC-MS analysis relative to control. Set-up: scale not given: the % may be the effect or the level left.

T2 sequence (P10613 whole entry): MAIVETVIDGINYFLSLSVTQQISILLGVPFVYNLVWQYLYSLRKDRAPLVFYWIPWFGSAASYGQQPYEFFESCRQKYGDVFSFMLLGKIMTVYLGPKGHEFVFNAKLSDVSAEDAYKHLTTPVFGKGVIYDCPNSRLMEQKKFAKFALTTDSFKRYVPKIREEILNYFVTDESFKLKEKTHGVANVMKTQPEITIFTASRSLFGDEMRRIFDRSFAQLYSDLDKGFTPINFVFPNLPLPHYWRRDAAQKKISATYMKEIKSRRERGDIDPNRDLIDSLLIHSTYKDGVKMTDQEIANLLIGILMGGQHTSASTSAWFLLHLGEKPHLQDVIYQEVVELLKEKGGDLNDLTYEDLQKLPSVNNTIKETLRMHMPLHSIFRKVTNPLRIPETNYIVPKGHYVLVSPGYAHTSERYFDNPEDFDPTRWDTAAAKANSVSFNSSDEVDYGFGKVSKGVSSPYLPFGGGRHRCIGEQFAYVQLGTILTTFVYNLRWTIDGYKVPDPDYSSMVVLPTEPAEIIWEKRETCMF

By inhibition is commonly meant how much of the control response was suppressed. As a reminder, the IC50 is the concentration that inhibits the measured activity by half. The term MIC80 denotes an inhibitory concentration at the 80% level, which refers to growth in some studies and to a panel of isolates in others. With `CN(Cc1ccc(-n2cnn(CCCCc3ccc(C(=O)NO)cc3)c2=O)cc1)CC(O)(Cn1cncn1)c1ccc(F)cc1F` (racemic), the Activity in the data set with Candida albicans [1] came out at 4.49 log10CFU/g; in data set [10] it was 25.29%. For the same compound, the selectivity ratio in data set [2], in data set [4] and in data set [6] was 2 to 16 each time. Besides, the inhibition at 8 µg/mL in the data set on Candida albicans [3] was determined as 100%. Moreover, the inhibition entry with Candida albicans [5] and in the data set with Candida albicans [8] was “Active” each time. The IC50 in the data set on A549 is 6.7 to 25.4 µM; in the data set with HUVEC, 6.7 to 25.4 µM; in [9] it was 0.12 µM. Further, the MIC80 in the data set on Candida albicans [7] was found to be 2 µg/mL (≈ 3.16 µM); in the data set with Cryptococcus neoformans it was 2 µg/mL (≈ 3.16 µM); against Candida albicans [11], 2 µg/mL (≈ 3.16 µM); with Candida albicans [12], 4 µg/mL (≈ 6.32 µM).

With `CN(Cc1ccc(OCCCOc2ccc(CC(=O)NO)cc2)cc1)CC(O)(Cn1cncn1)c1ccc(F)cc1F` (racemic), the Activity is listed as 6.16 log10CFU/g with Candida albicans [1], 8.57% in [10] and 7.59% in [16]. The selectivity ratio in [2], in data set [4] and in [6] was 2 to 16 throughout. Besides, the result in the data set with Candida albicans [13] was Active. The inhibition entry in the data set with Candida albicans [5], in the data set on Candida albicans [8] and in the data set on Candida albicans [15] was “Active” in each case. Further, the IC50 in the data set with A549 is 6.7 to 25.4 µM; with HUVEC, 6.7 to 25.4 µM; in [9], 0.6 µM. For the same compound, the MIC80 in the data set on Candida albicans [7] amounted to 0.5 µg/mL (≈ 0.86 µM); with Cryptococcus neoformans, 0.5 µg/mL (≈ 0.86 µM); in the data set with Candida albicans [11] it was 0.25 µg/mL (≈ 0.43 µM); in the data set with Candida albicans [12] it was 0.125 µg/mL (≈ 0.215 µM). In addition, the inhibition at 1 µg/mL in the data set on Candida albicans [14] was determined as 100%.
